Source: ChEMBL document CHEMBL5625232, “Development of selective class I protein arginine methyltransferase inhibitors through fragment-based drug design approach” (Eur J Med Chem, 2023)
Calls of active or inactive are those of the source. No cut-off for these calls is given here.

Tests used:
[1] = molecular target: T1, Histone-arginine methyltransferase CARM1 (Homo sapiens, UniProt Q86X55); experiment: Displacement of 3H-SAM from human PRMT4 in presence of substrate by SPA assay
T1 sequence (Q86X55 whole entry): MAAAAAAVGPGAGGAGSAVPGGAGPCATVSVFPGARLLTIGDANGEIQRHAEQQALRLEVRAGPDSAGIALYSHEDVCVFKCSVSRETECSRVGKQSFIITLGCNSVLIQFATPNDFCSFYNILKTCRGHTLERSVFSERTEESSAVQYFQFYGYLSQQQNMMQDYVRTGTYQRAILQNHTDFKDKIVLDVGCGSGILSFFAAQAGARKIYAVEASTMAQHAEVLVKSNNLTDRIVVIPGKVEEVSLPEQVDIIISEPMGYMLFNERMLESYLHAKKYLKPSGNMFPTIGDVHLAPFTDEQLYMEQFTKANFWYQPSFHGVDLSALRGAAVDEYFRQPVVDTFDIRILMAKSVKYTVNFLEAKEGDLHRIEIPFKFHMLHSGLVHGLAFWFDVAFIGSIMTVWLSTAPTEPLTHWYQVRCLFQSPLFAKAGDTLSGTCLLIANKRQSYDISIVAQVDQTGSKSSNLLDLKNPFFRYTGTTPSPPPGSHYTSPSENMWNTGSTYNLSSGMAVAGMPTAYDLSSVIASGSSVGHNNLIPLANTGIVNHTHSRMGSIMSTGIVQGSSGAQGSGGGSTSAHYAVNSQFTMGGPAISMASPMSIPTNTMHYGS

[2] = molecular target: T2, Protein arginine N-methyltransferase 8 (Homo sapiens, UniProt Q9NR22); experiment: Displacement of 3H-SAM from human PRMT8 at 10 uM in presence of substrate by SPA assay
Target sequence in this assay (Q9NR22 2-394 limits assumed): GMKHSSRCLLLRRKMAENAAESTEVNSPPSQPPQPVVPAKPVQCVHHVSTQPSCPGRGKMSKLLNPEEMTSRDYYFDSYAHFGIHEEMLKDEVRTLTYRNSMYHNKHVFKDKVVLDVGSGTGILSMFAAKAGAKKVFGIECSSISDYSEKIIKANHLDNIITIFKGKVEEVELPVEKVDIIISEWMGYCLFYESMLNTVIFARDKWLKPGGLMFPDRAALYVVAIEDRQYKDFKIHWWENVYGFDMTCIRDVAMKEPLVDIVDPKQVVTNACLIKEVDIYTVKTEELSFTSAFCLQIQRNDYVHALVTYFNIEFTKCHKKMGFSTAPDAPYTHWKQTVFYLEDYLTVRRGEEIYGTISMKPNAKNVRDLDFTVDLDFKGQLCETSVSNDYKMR

[3] = molecular target: T3, Protein arginine N-methyltransferase 3 (Homo sapiens, UniProt O60678); experiment: Displacement of 3H-SAM from human PRMT3 in presence of substrate by SPA assay
Target sequence in this assay (O60678 whole entry): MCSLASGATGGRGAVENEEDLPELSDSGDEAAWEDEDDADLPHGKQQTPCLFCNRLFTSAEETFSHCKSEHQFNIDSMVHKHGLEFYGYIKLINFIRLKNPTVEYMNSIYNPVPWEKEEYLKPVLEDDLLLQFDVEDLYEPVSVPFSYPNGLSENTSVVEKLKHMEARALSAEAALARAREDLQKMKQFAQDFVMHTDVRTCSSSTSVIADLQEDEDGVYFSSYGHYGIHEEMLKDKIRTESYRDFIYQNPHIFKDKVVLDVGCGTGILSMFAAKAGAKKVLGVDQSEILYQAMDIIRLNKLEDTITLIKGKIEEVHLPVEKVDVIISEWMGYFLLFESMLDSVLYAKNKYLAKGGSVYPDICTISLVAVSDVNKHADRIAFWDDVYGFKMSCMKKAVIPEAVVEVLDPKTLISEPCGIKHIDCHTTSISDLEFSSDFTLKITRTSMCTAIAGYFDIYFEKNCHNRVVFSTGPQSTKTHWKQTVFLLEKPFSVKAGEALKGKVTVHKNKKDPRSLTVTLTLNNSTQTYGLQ

[4] = molecular target: T4, Protein arginine N-methyltransferase 9 (Homo sapiens) (UniProt Q6P2P2); experiment: Displacement of 3H-SAM from human PRMT9 at 10 uM in presence of substrate by SPA assay
T4 sequence (whole entry): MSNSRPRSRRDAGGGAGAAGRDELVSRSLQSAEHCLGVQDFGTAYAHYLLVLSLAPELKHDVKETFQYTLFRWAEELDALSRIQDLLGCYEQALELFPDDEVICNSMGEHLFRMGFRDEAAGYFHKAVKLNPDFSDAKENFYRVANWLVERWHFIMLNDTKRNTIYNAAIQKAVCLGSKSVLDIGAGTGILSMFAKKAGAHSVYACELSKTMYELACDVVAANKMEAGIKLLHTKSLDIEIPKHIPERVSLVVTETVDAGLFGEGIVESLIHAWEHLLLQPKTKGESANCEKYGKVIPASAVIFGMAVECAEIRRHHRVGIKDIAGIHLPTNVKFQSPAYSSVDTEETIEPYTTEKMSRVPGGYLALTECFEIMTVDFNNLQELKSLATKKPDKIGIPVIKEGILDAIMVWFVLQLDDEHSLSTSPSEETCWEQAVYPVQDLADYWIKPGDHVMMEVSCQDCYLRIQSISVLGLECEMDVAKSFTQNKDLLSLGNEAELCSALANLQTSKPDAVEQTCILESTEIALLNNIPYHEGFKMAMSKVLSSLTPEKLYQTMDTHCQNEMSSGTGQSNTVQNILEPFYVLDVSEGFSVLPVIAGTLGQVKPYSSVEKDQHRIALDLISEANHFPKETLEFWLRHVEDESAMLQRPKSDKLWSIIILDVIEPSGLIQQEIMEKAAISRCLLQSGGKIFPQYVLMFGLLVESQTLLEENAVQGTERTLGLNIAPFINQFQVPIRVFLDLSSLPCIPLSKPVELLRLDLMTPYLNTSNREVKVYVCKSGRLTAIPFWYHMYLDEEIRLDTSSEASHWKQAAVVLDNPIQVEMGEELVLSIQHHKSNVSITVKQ

[5] = molecular target: T1, Histone-arginine methyltransferase CARM1; experiment: Binding affinity to PRMT4 (unknown origin) assessed as dissociation constant by ITC analysis
[6] = molecular target: T5, Protein arginine N-methyltransferase 6 (Homo sapiens, UniProt Q96LA8); experiment: Displacement of 3H-SAM from human PRMT6 in presence of substrate by SPA assay
Target sequence in this assay (Q96LA8 whole entry): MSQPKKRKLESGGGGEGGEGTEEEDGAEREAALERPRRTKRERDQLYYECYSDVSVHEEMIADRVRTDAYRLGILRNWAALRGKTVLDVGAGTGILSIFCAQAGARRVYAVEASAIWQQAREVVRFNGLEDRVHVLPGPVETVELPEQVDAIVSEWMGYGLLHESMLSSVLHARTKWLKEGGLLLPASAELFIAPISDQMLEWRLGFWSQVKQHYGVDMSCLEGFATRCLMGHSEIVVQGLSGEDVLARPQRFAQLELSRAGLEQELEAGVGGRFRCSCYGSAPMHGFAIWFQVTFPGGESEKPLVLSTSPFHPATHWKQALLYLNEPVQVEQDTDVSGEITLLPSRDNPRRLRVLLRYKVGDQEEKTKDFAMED

[7] = molecular target: T6, Histone-arginine methyltransferase CARM1 (Homo sapiens) (UniProt Q86X55); experiment: Displacement of 3H-SAM from human PRMT4 at 10 uM in presence of substrate by SPA assay
T6 sequence (whole entry): T1 sequence (Q86X55 whole entry)

[8] = molecular target: Protein arginine N-methyltransferase 5 (Homo sapiens) (UniProt O14744); experiment: Displacement of 3H-SAM from human PRMT5 at 10 uM in presence of substrate by SPA assay
Chain of Protein arginine N-methyltransferase 5 (Homo sapiens) (O14744 whole entry): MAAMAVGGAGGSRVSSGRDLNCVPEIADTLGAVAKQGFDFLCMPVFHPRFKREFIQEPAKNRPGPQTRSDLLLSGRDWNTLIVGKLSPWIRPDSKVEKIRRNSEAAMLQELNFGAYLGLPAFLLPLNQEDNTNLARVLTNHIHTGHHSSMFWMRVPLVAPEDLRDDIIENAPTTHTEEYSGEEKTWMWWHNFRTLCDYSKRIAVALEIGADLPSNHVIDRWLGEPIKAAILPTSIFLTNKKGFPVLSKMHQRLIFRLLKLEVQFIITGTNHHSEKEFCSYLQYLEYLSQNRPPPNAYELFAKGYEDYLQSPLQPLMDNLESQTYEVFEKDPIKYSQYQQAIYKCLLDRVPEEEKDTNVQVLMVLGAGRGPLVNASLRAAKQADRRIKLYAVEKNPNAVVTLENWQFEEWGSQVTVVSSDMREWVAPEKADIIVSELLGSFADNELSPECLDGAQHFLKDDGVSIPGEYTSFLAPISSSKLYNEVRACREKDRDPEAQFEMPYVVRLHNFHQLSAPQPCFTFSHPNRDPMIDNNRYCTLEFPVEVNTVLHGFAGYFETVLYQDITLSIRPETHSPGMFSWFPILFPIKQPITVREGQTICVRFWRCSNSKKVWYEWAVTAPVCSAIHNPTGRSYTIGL

[9] = molecular target: T3, Protein arginine N-methyltransferase 3; experiment: Displacement of 3H-SAM from human PRMT3 at 10 uM in presence of substrate by SPA assay
Target sequence in this assay (O60678 2-531 limits assumed): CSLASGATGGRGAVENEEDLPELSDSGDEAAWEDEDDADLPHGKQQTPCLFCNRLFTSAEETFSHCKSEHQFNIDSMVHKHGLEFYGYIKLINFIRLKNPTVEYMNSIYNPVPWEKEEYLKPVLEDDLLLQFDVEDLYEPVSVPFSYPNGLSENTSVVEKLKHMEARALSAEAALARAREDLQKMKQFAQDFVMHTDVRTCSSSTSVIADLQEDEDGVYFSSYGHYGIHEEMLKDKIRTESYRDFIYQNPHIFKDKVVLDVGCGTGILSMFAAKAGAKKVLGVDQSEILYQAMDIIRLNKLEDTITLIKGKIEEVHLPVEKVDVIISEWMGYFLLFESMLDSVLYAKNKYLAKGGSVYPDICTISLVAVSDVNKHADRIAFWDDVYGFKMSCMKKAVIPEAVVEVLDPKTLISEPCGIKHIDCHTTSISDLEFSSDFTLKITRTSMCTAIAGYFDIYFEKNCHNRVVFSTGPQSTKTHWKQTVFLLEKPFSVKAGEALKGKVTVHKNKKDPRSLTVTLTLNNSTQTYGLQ

[10] = molecular target: T7, Protein arginine N-methyltransferase 7 (Homo sapiens) (UniProt Q9NVM4); experiment: Displacement of 3H-SAM from human PRMT7 at 10 uM in presence of substrate by SPA assay
T7 sequence (whole entry): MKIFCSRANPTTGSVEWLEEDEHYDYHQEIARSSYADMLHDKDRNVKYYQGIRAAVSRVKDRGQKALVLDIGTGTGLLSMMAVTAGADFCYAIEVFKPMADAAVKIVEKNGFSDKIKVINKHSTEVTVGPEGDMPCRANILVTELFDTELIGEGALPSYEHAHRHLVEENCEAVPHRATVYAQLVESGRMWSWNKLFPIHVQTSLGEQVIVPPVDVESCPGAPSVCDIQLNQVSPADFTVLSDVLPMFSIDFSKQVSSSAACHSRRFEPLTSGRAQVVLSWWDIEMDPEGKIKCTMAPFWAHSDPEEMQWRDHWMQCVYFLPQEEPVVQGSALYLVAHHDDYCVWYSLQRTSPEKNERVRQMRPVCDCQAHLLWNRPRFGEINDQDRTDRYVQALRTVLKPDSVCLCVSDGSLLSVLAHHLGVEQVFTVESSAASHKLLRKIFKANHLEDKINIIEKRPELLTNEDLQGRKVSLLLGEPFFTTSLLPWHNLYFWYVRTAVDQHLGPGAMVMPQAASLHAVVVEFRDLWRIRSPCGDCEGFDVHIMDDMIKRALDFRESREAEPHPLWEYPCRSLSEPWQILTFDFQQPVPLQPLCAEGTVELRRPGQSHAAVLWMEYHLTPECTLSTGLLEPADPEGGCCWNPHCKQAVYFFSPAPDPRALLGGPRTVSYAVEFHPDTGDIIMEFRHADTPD

[11] = molecular target: T5, Protein arginine N-methyltransferase 6; experiment: Displacement of 3H-SAM from human PRMT6 at 10 uM in presence of substrate by SPA assay
Target sequence in this assay (Q96LA8 whole entry, looked up): as the sequence (Q96LA8 whole entry) above

[12] = molecular target: T2, Protein arginine N-methyltransferase 8; experiment: Displacement of 3H-SAM from human PRMT8 in presence of substrate by SPA assay
Target sequence in this assay (Q9NR22 whole entry): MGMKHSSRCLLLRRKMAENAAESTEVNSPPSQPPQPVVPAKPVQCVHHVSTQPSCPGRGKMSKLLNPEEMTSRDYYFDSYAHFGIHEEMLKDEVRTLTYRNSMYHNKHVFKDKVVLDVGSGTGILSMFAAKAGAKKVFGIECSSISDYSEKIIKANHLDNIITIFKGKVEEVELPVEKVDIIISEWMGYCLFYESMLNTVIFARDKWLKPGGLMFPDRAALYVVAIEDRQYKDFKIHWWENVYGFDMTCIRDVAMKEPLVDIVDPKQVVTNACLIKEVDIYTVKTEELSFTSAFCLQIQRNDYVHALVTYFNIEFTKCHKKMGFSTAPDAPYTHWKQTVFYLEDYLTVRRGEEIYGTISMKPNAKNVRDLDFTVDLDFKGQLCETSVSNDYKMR

Q: How did the IC50 [1] turn out when `CNCCN1CC[C@@H](NC(=O)c2ccc3c(Nc4ccc(CN)cc4)ncnc3c2)C1` was run?
A: Its IC50 is 37 µM.

Q: And the inhibition [2]?
A: Its inhibition is “Active”.

Q: And the IC50 [3]?
A: The IC50 was 3570 µM.

Q: What about the inhibition [4] of the same molecule?
A: The inhibition was “Active”.

Q: And the Kd [5]?
A: Its Kd is 25 µM.

Q: What about the IC50 [6] of the same molecule?
A: Its IC50 is 253 µM.

Q: And the inhibition [7]?
A: The inhibition was “Active”.

Q: And the inhibition [8]?
A: Its inhibition is “Active”.

Q: What about the inhibition [9] of the same molecule?
A: Its inhibition is “Active”.

Q: And the inhibition [10]?
A: The inhibition was “Active”.

Q: And the inhibition [11]?
A: The inhibition was “Active”.

Q: And the IC50 [12]?
A: Its IC50 is 794 µM.

Q: Which IC50 [1] does the source give for `CNCCN1CC[C@H](NC(=O)c2ccc3c(Nc4ccc(CN)cc4)ncnc3c2)C1` here?
A: The IC50 was 92 µM.

Q: And the inhibition [2]?
A: Its inhibition is “Active”.

Q: What about the IC50 [3] of the same molecule?
A: The IC50 was 1390 µM.

Q: And the inhibition [4]?
A: Its inhibition is “Active”.

Q: And the Kd [5]?
A: Its Kd is 20 µM.

Q: What about the IC50 [6] of the same molecule?
A: Its IC50 is 436 µM.

Q: What about the inhibition [7] of the same molecule?
A: The inhibition was “Active”.

Q: And the inhibition [8]?
A: Its inhibition is “Active”.

Q: And the inhibition [9]?
A: The inhibition was “Active”.

Q: What about the inhibition [10] of the same molecule?
A: Its inhibition is “Active”.

Q: What about the inhibition [11] of the same molecule?
A: Its inhibition is “Active”.

Q: And the IC50 [12]?
A: The IC50 was 823 µM.

Q: For `CNCCN1CCC(NC(=O)c2ccc3c(Nc4ccc(CN)cc4)ncnc3c2)C1` (racemic), which IC50 [1] is on record?
A: Its IC50 is 80 µM.

Q: What about the inhibition [2] of the same molecule?
A: Its inhibition is “Active”.

Q: And the IC50 [3]?
A: Its IC50 is 3120 µM.

Q: And the inhibition [4]?
A: Its inhibition is “Active”.

Q: What about the IC50 [6] of the same molecule?
A: Its IC50 is 703 µM.

Q: And the inhibition [7]?
A: The inhibition was “Active”.

Q: And the inhibition [8]?
A: The inhibition was “Active”.

Q: What about the inhibition [9] of the same molecule?
A: Its inhibition is “Active”.

Q: What about the inhibition [10] of the same molecule?
A: Its inhibition is “Active”.

Q: And the inhibition [11]?
A: Its inhibition is “Active”.

Q: What about the IC50 [12] of the same molecule?
A: Its IC50 is 2430 µM.
